# Test results reported in patent publication US4257941A, “Polycyclic nitrogen-containing compounds” (BASF Aktiengesellschaft, priority 1976, dated 1981).
# Tests used:
# Type in all cases: in vivo
# [1] = system: sunflowers; experiment: Action on sunflowers (Example 24); conditions: for Plant height relative: control 100
# From the text: The active ingredients were applied both to the soil and to the leaves.
# [2] = system: soybeans; experiment: Action on soybeans, hydroponic (Example 17a); conditions: for Root dry substance rel. / Root length rel. / Shoot dry substance rel. / Shoot length rel.: control 100
# Protocol: (§1) Young soybean plants grown in quartz sand were transferred to hydroponic treatment in 4 liter vessels and provided with a sufficient supply of nutrient solution and trace elements. The active ingredients were added (0.25 mg/vessel=0.06 ppm; 1.0 mg/vessel=0.25 ppm; 2.5 mg/vessel=0.63 ppm) at a plant height of approx. 22 cm. The plants were in continuous contact with the active ingredients. […] The roots were also shorter, but the plants had more and stronger shoots.
# The action on soybeans, field beans and sunflowers was examined under the same conditions as in Example 16. The shoots and roots of all 3 crop plants were considerably shortened. Whereas in the shoots the dry substance was reduced commensurately with the shortening, the dry substance in the roots rose (particularly in soybeans) as the concentration increased.
# [3] = system: rice; experiment: Action on rice (Example 23); conditions: leaf; for Plant height: 66 days; for Plant height relative: control 100
# Protocol: At a growth height of 11 to 13 cm the active ingredients were sprayed onto the leaves in the usual manner. The plants were measured after 66 days.
# [4] = system: soybeans; experiment: Growth of roots and shoots of soybeans, hydroponic (Example 16); conditions: for Root dry substance rel. / Root length rel. / Shoot dry substance rel. / Shoot length rel.: control 100
# Protocol: as §1
structure (smiles),measurement,setting,value
Clc1ccc(N2N=NC3C4CC(C5N=NC45)C32)cc1 (stereo not drawn) [drawing 406],Plant height,"[1]; soil, 3.0 kg/ha",26.5 cm
same,Plant height relative,"[1]; soil, 3.0 kg/ha",73
same,Plant height,"[1]; soil, 12.0 kg/ha",15.5 cm
same,Plant height relative,"[1]; soil, 12.0 kg/ha",43
Brc1ccc(N2N=NC3C4CC(C5N=NC45)C32)cc1 (stereo not drawn) [drawing 388],Root dry substance,[2]; 0.06 ppm,1.5 g
same,Root length,[2]; 0.06 ppm,21.7 cm
same,Shoot dry substance,[2]; 0.06 ppm,5.4 g
same,Shoot length,[2]; 0.06 ppm,33.0 cm
same,Root dry substance rel.,[2]; 0.06 ppm,136.4
same,Root length rel.,[2]; 0.06 ppm,75.6
same,Shoot dry substance rel.,[2]; 0.06 ppm,93.1
same,Shoot length rel.,[2]; 0.06 ppm,89.9
same,Root dry substance,[2]; 0.25 ppm,1.5 g
same,Root length,[2]; 0.25 ppm,20.0 cm
same,Shoot dry substance,[2]; 0.25 ppm,4.9 g
same,Shoot length,[2]; 0.25 ppm,21.7 cm
same,Root dry substance rel.,[2]; 0.25 ppm,136.4
same,Root length rel.,[2]; 0.25 ppm,69.7
same,Shoot dry substance rel.,[2]; 0.25 ppm,84.5
same,Shoot length rel.,[2]; 0.25 ppm,59.1
same,Root dry substance,[2]; 0.63 ppm,2.1 g
same,Root length,[2]; 0.63 ppm,20.0 cm
same,Shoot dry substance,[2]; 0.63 ppm,3.9 g
same,Shoot length,[2]; 0.63 ppm,19.0 cm
same,Root dry substance rel.,[2]; 0.63 ppm,190.9
same,Root length rel.,[2]; 0.63 ppm,69.7
same,Shoot dry substance rel.,[2]; 0.63 ppm,67.2
same,Shoot length rel.,[2]; 0.63 ppm,51.8
Brc1ccc(N2N=NC3C4CC(C5N=NC45)C32)cc1 (stereo not drawn) [drawing 407],Plant height relative,"[1]; soil, 3.0 kg/ha",84
same,Plant height,"[1]; soil, 12.0 kg/ha",22.5 cm
same,Plant height relative,"[1]; soil, 12.0 kg/ha",62
Brc1ccc(N2N=NC3C4CC(C5N=NC45)C32)cc1 (stereo not drawn) [drawing 405],Plant height,[3]; 1.0 kg/ha,37.0 cm
same,Plant height relative,[3]; 1.0 kg/ha,91.1
same,Plant height,[3]; 2.0 kg/ha,37.0 cm
same,Plant height relative,[3]; 2.0 kg/ha,91.1
same,Plant height,[3]; 4.0 kg/ha,34.5 cm
same,Plant height relative,[3]; 4.0 kg/ha,85.0
same,Plant height,[3]; 6.0 kg/ha,33.5 cm
same,Plant height relative,[3]; 6.0 kg/ha,82.5
Clc1ccc(N2N=NC3C4CC(C5N=NC45)C32)cc1 (stereo not drawn) [drawing 408],Plant height relative,"[1]; leaf, 1.5 kg/ha",78
same,Plant height,"[1]; leaf, 6.0 kg/ha",25.5 cm
same,Plant height relative,"[1]; leaf, 6.0 kg/ha",67
Clc1ccc(N2N=NC3C4CC(C5N=NC45)C32)cc1 (stereo not drawn) [drawing 387],Root dry substance,[4]; 0.06 ppm,13.5 g
same,Root length,[4]; 0.06 ppm,28.3 cm
same,Shoot dry substance,[4]; 0.06 ppm,39.0 g
same,Shoot length,[4]; 0.06 ppm,70.7 cm
same,Root dry substance rel.,[4]; 0.06 ppm,97.1
same,Root length rel.,[4]; 0.06 ppm,93.4
same,Shoot dry substance rel.,[4]; 0.06 ppm,94.9
same,Shoot length rel.,[4]; 0.06 ppm,95.4
same,Root dry substance,[4]; 0.25 ppm,13.2 g
same,Root length,[4]; 0.25 ppm,24.7 cm
same,Shoot dry substance,[4]; 0.25 ppm,31.5 g
same,Shoot length,[4]; 0.25 ppm,62.3 cm
same,Root dry substance rel.,[4]; 0.25 ppm,95.0
same,Root length rel.,[4]; 0.25 ppm,81.5
same,Shoot dry substance rel.,[4]; 0.25 ppm,76.6
same,Shoot length rel.,[4]; 0.25 ppm,84.1
same,Root dry substance,[4]; 0.63 ppm,15.0 g
same,Root length,[4]; 0.63 ppm,24.7 cm
same,Shoot dry substance,[4]; 0.63 ppm,26.6 g
same,Shoot length,[4]; 0.63 ppm,51.7 cm
same,Root dry substance rel.,[4]; 0.63 ppm,107.9
same,Root length rel.,[4]; 0.63 ppm,81.5
same,Shoot dry substance rel.,[4]; 0.63 ppm,64.7
same,Shoot length rel.,[4]; 0.63 ppm,69.8
